# What was measured:
# HIV-RT K103N = HIV-RT K103N (Human immunodeficiency virus type 1 group M subtype B, UniProt P04585, K690N); settings: Rotili et al. 2012; cited from earlier work
# HIV-RT Y181I = HIV-RT Y181I (Human immunodeficiency virus type 1 group M subtype B, UniProt P04585, Y768I); settings: Rotili et al. 2012; cited from earlier work
# HIV-RT WT = HIV-RT WT (Human immunodeficiency virus type 1 group M subtype B, UniProt P04585); settings: Rotili et al. 2012; cited from earlier work
# HIV-RT Y188L = HIV-RT Y188L (Human immunodeficiency virus type 1 group M subtype B, UniProt P04585, Y775L); settings: Rotili et al. 2012; cited from earlier work
# HIV-RT V106A = HIV-RT V106A (Human immunodeficiency virus type 1 group M subtype B, UniProt P04585, V693A); settings: Rotili et al. 2012; cited from earlier work
# HIV-RT L100I = HIV-RT L100I (Human immunodeficiency virus type 1 group M subtype B, UniProt P04585, L687I); settings: Rotili et al. 2012; cited from earlier work
# HDAC isoforms = assay: HDAC inhibition profiled over several HDAC isoforms (experimental); type: biochemical, human
# HDLP = settings: CTS; cited from earlier work
# HDAC7 = target: T1, HDAC7 (Homo sapiens, UniProt Q8WUI4); settings: MTS inhibitors; cited from earlier work
# T1 sequence (Q8WUI4 1-952): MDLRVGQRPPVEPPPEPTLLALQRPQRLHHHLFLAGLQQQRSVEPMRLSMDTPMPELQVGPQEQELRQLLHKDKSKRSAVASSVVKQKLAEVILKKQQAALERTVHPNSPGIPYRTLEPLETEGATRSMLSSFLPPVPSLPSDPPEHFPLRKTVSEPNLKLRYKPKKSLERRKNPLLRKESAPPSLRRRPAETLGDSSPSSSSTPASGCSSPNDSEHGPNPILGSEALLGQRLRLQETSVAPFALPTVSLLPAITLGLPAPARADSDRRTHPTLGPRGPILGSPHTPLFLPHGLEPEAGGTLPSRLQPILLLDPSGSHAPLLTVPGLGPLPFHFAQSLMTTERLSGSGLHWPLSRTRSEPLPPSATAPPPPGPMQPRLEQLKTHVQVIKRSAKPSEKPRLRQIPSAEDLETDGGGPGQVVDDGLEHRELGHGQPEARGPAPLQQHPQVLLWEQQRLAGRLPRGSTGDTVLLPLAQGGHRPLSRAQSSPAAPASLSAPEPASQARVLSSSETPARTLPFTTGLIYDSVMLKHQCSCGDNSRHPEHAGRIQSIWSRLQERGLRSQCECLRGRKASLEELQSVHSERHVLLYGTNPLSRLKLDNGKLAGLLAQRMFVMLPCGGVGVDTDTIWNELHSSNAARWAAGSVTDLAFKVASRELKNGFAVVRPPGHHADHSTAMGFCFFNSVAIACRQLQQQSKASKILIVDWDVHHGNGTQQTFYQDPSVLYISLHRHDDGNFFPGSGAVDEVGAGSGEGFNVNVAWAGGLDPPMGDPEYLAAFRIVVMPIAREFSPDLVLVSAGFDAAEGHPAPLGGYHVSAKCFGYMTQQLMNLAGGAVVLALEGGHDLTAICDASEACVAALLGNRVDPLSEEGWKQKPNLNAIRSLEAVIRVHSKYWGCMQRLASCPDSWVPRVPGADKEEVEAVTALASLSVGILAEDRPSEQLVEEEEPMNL
# HDAC9 = HDAC9 (Homo sapiens, UniProt Q9UKV0); settings: MTS inhibitors; cited from earlier work
# HDAC5 = HDAC5 (Homo sapiens, UniProt Q9UQL6); settings: MTS inhibitors, HDAC5; cited from earlier work
# HDAC4 = HDAC4 (Homo sapiens, UniProt P56524); settings: MTS inhibitors; cited from earlier work
# Sequence of HDAC4 (P56524 whole entry, canonical isoform): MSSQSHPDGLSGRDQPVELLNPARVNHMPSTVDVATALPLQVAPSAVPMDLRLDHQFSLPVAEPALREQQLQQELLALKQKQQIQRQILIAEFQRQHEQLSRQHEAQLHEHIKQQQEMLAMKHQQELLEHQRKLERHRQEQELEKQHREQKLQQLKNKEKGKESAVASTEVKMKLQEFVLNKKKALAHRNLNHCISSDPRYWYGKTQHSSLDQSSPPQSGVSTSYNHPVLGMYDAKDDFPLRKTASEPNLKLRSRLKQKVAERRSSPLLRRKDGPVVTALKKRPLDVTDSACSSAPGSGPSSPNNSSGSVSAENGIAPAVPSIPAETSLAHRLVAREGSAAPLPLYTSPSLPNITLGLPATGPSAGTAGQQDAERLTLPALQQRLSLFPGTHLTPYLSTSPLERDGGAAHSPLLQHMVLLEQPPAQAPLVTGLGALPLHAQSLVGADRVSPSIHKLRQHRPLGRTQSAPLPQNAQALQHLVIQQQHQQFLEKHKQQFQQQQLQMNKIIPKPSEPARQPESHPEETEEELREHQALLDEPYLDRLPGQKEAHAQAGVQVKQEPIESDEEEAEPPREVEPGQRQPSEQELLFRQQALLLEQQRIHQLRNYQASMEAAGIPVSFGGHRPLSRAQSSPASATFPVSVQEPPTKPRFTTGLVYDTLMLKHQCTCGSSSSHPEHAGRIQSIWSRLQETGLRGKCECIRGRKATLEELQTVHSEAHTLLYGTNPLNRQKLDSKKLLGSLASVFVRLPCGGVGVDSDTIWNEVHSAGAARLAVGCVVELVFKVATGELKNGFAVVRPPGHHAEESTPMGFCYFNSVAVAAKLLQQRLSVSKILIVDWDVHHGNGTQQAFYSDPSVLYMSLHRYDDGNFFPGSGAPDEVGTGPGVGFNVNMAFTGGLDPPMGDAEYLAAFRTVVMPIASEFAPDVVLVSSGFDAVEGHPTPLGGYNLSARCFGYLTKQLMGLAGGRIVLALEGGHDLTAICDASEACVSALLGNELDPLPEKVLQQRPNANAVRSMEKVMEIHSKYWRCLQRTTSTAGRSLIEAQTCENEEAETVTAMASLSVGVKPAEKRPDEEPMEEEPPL
# Sequence of HDAC9 (Q9UKV0 whole entry): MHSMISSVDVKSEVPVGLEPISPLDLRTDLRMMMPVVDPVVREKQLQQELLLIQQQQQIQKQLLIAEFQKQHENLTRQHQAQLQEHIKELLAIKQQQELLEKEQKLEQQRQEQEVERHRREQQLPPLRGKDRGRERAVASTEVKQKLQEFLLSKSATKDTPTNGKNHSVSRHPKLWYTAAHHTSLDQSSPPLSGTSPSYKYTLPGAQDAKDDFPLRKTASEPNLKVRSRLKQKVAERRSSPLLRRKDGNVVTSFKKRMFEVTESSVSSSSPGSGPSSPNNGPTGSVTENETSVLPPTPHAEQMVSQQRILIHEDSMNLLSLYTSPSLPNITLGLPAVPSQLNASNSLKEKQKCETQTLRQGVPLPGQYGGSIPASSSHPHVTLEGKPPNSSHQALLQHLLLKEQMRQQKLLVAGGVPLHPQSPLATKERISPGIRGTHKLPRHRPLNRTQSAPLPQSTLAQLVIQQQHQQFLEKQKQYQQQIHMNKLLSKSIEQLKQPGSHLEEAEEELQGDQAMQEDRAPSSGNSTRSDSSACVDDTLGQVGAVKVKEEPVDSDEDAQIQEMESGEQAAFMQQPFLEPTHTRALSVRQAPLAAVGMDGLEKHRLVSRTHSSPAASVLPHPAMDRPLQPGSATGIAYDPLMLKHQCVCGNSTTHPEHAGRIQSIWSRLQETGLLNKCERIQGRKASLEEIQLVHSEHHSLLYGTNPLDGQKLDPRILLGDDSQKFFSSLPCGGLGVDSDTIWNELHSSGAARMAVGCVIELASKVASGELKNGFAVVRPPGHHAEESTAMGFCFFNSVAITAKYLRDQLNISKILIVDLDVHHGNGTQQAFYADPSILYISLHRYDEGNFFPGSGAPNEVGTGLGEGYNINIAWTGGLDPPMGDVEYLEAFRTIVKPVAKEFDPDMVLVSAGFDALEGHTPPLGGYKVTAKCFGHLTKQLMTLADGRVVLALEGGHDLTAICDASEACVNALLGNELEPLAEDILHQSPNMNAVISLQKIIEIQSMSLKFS
# Sequence of HDAC5 (Q9UQL6 whole entry): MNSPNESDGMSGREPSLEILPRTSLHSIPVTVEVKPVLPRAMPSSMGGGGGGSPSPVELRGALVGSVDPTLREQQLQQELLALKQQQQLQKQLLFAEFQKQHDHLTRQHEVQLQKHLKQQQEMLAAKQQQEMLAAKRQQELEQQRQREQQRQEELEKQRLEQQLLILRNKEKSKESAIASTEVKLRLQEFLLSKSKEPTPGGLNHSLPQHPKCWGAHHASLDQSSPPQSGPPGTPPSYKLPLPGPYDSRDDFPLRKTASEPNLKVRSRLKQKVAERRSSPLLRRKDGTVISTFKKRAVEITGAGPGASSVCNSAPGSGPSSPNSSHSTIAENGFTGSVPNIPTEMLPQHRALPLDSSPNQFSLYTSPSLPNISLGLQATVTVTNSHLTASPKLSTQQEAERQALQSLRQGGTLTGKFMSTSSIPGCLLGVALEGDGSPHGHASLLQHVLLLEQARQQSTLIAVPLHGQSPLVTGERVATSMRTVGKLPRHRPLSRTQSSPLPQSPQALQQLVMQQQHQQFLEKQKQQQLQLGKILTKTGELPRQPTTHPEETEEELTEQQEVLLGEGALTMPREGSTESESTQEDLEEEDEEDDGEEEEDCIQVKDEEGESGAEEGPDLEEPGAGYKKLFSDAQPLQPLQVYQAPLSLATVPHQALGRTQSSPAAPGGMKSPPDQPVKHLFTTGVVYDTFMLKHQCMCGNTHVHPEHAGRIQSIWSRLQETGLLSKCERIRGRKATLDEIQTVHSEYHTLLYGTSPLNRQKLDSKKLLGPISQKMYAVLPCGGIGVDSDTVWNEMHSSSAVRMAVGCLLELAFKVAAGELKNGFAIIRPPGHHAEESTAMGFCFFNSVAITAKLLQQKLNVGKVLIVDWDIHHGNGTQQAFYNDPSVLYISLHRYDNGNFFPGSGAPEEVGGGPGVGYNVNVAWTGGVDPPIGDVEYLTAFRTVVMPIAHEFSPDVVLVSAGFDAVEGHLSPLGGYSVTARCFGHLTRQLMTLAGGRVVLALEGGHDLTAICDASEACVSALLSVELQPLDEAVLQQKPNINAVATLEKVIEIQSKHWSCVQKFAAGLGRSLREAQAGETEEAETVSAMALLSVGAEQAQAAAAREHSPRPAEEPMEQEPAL
SMILES,"Experimental activity (pKi), Exp (HIV-RT K103N)","Experimental activity (pKi), Exp (HIV-RT Y181I)","Experimental activity (pKi), Exp (HIV-RT WT)","Experimental activity (pKi), Exp (HIV-RT Y188L)","Experimental activity (pKi), Exp (HIV-RT V106A)","Experimental activity (pKi), Exp (HIV-RT L100I)",Bioactivity range (ΔpIC50) DpIC50 (HDAC isoforms; range of pIC50 over the profiled HDAC isoforms),Experimental pIC50 (HDLP),IC50 (HDLP),Exp. pIC50 (HDAC7),Exp. pIC50 (HDAC9),Exp. pIC50 (HDAC5),"average pIC50 value, Exp. (HDAC isoforms; average over HDAC isoforms, MTS)",Exp. pIC50 (HDAC4)
C/C=C/N(C)c1nc([C@@H](C)c2c(F)cccc2F)c(C)c(=O)[nH]1 [(S)-MC1501],6.01,4.40,6.93,4.40,6.45,4.40,–,–,–,–,–,–,–,–
Cc1c(N)nc(Nc2ccc(C#N)cc2)nc1[C@H](C)c1c(F)cccc1F [(R)-MC2082],8.52,6.12,6.81,8.10,9.52,8.10,–,–,–,–,–,–,–,–
Cc1c(N)nc(Nc2ccc(C#N)cc2)nc1[C@@H](C)c1c(F)cccc1F [(S)-MC2082],7.19,6.29,4.52,4.40,6.62,6.74,–,–,–,–,–,–,–,–
C/C=C/N(C)c1nc([C@H](C)c2c(F)cccc2F)c(C)c(=O)[nH]1 [(R)-MC1501],7.02,6.35,8.70,6.71,8.52,7.02,–,–,–,–,–,–,–,–
"CC(/C=C/C(=O)NO)=C\[C@H](C)C(=O)c1ccc(N(C)C)cc1 (stereo in doubt) [TSA, 7-(4-(Dimethylamino)phenyl)-N-hydroxy-4,6-dimethyl-7-oxo-2,4-heptadienamide]",–,–,–,–,–,–,2.34,6.40,400 nM,–,–,–,–,–
O=C(O)CCCc1ccccc1 [MCL-3],–,–,–,–,–,–,–,–,–,2.70,2.70,2.70,3.40,2.70

# — US20160378912A1, “STRUCTURE-BASED MODELING AND TARGET-SELECTIVITY PREDICTION” (EPIGENETX, LLC, priority 2013, published 2016)
